Results: PMC10703884, “Targeting the COMMD4–H2B protein complex in lung cancer” (British Journal of Cancer, 2023)
No end group written: not given here.

Columns and labels:
NSCLC cells = experiment: Immunofluorescence γH2AX and MDC1 foci, NSCLC cells; assay type: cell-based; details: 6 Gy IR, 0.5 to 2 h post-IR, 50 cells per condition, three independent experiments
Experimental: (§1) For siRNA transfections, cells were transfected with negative control or COMMD4 siRNA #2 (CCAUGUCCCUCUCAGCAGA[dT][dT] MISSION® siRNA, Sigma-Aldrich) using RNAiMax (Life Technologies) as previously described and samples were analysed 48 to 72 h post-transfection. The H2B wild-type (FLAG-H2BWT) and mutant (FLAG-H2BMUT1) expression constructs were generated with the 10-amino acid peptide and the corresponding mutant cloned into the expression vector pCDNA3.1/(+)-N-DYK containing an N-terminal FLAG tag and a C-terminal nuclear localisation signal (AAKRVKLDS) (GenScript). A70K FLAG-COMMD4 expression construct was generated by mutating the corresponding COMMD4-FLAG construct to harbour an A70K mutation (GenScript). Cells were mock-transfected, or transfected with FLAG-H2BWT/FLAG-H2BMUT1, or COMMD4-FLAG/A70K with FuGENE® HD (Promega) using the manufacturer’s protocol and analysed 24 h post-transfection.
NSCLC and control cells transfected with siRNA or H2B plasmids were grown in optical glass bottom 96-well plates (Cellvis). Post-treatment, cells were pre-extracted with ice-cold extraction buffer (20 mM HEPES (pH 8), 20 mM NaCl, 5 mM MgCl2, 1 mM ATP, 0.5% NP40), to remove the soluble proteins and processed as previous. Images were captured using a Delta Vision PDV microscope 100x/1.42 Oil objective (Applied Precision, Inc). All immunofluorescence figures were assembled using Adobe Photoshop. High-content microscopy was performed using the InCell Analyzer 6500 Imaging System (GE Healthcare Life Sciences). Images were analysed using the InCarta Image Analysis software (GE Healthcare Life Sciences) where a minimum of 50 nuclei were quantified per experiment.
Fig. 4 Induction of DSBs in NSCLC and control cells. a Immunofluorescence staining of H1299 NSCLC cells transfected with control or COMMD4 siRNA #2 and FLAG-H2BWT or FLAG-H2BMUT1 is shown. […]
independent experiments where 50 cells were quantified per condition. γH2AX is shown in […]
mean ± SD from three independent experiments where 50 cells were quantified per condition.

[1] = tested on: H460, H1299 and CRL5889 NSCLC cells; experiment: CellTiter-Glo 2.0 luminescent cell viability after IR, NSCLC cells; assay type: cell-based; details: CellTiter-Glo 2.0, 48 h post-irradiation, three independent experiments
Experimental: (§2) H1299, CRL5889 and H460 cells were cultured in Roswell Park Memorial Institute (RPMI) 1640 medium (Life Technologies) containing 10% foetal bovine serum (Thermo Fisher Scientific). Human bronchial epithelial cells (HBEC3-KT) were maintained in keratinocyte serum-free medium supplemented with epidermal growth factor and bovine pituitary extract (Life Technologies). The histology features and origin of all cell lines used have been previously described. Cell lines were authenticated using STR profiling. Cells were grown in a humidified incubator at 37 °C/5% CO2 atmosphere. All cell lines were verified to be free of mycoplasma contamination.
(§3) Irradiations were done at room temperature using a ^137Cs source (Gammacell 40 Exactor [MDS Nordion]; dose rate 1.1 Gy/min). […]
(§4) For siRNA transfections, cells were transfected with negative control or COMMD4 siRNA #2 (CCAUGUCCCUCUCAGCAGA[dT][dT] MISSION® siRNA, Sigma-Aldrich) using RNAiMax (Life Technologies) as previously described and samples were analysed 48 to 72 h post-transfection. […] Cells were mock-transfected, or transfected with FLAG-H2BWT/FLAG-H2BMUT1, or COMMD4-FLAG/A70K with FuGENE® HD (Promega) using the manufacturer’s protocol and analysed 24 h post-transfection.
(§5) A CellTiter-Glo 2.0 Luminescent assay (Promega Corporation) was carried out as previously described. […] Luminescence was measured using a PHERAstar FSX detection system (BMG Labtech). […]

HBEC3-KT cells [2] = experiment: CellTiter-Glo 2.0 luminescent cell viability after IR, HBEC3-KT cells; assay type: cell-based, Human; details: CellTiter-Glo 2.0, 48 h post-irradiation, three independent experiments
Experimental: as §2, §3, §4, §5

HBEC3-KT cells [3] = experiment: Clonogenic cell viability after IR, HBEC3-KT cells; assay type: cell-based, Human; details: varying IR doses, 7–10 days recovery, three independent experiments
Experimental: as §2
(§6) Irradiations were done at room temperature using a ^137Cs source (Gammacell 40 Exactor [MDS Nordion]; dose rate 1.1 Gy/min). Phalloidin-Atto 488 was purchased from Sigma-Aldrich and Hoechst 33342 was purchased from Thermo Fisher Scientific.
(§7) For siRNA transfections, cells were transfected with negative control or COMMD4 siRNA #2 (CCAUGUCCCUCUCAGCAGA[dT][dT] MISSION® siRNA, Sigma-Aldrich) using RNAiMax (Life Technologies) as previously described and samples were analysed 48 to 72 h post-transfection. […] Cells were mock-transfected, or transfected with FLAG-H2BWT/FLAG-H2BMUT1, or COMMD4-FLAG/A70K with FuGENE® HD (Promega) using the manufacturer’s protocol and analysed 24 h post-transfection. […]

[4] = tested on: H460, H1299 and CRL5889 NSCLC cells; experiment: Clonogenic cell viability after IR, NSCLC cells; assay type: cell-based; details: varying IR doses, 7–10 days recovery, three independent experiments, compared to control siRNA or FLAG-H2BMUT1/mock
Experimental: as §2, §6, §7

HBEC3-KT cells [5] = experiment: Immunofluorescence γH2AX and MDC1 foci, HBEC3-KT cells; assay type: cell-based, Human; details: 6 Gy IR, 50 cells per condition, three independent experiments
Experimental: as §1
NSCLC and control cells transfected with siRNA or H2B plasmids were grown in optical glass bottom 96-well plates (Cellvis). Post-treatment, cells were pre-extracted with ice-cold extraction buffer (20 mM HEPES (pH 8), 20 mM NaCl, 5 mM MgCl2, 1 mM ATP, 0.5% NP40), to remove the soluble proteins and processed as previous. […] Images were analysed using the InCarta Image Analysis software (GE Healthcare Life Sciences) where a minimum of 50 nuclei were quantified per experiment. […]

FLAG-H2BWT: 10-amino acid peptide cloned into expression vector containing an N-terminal FLAG tag and a C-terminal nuclear localisation signal ({FLAG}-SFVNDIFERIAAKRVKLDS)
γH2AX and MDC1 (DNA repair) foci (NSCLC cells): significantly more DNA repair foci
sensitivity to ionising radiation (luminescent viability) [1]: hypersensitive to IR compared to FLAG-H2BMUT1 and mock-transfected cells
sensitivity to ionising radiation (luminescent viability) (HBEC3-KT cells [2]): not hypersensitive
sensitivity to ionising radiation (clonogenic viability) (HBEC3-KT cells [3]): neither hypersensitive to IR
sensitivity to ionising radiation (clonogenic viability) [4]: resulted in a similar phenotype to COMMD4 siRNA depletion, albeit less pronounced, where hypersensitivity to IR was observed relative to cells expressing the mutant peptide (FLAG-H2BMUT1)
γH2AX and MDC1 (DNA repair) foci (HBEC3-KT cells [5]): exhibited increased DNA repair foci
